Patent US8741897B2, “Glucocorticoid mimetics, methods of making them, pharmaceutical compositions and uses thereof” (Boehringer Ingelheim Pharmaceuticals Inc., priority 2003, dated 2014)

tested on: glucocorticoid receptor function; assay: one or more of the above assays (GR binding and glucocorticoid receptor cell assays: aromatase, IL-6, TAT, MMTV-Luc, IL-8, ICAM-Luc); format: cell-based; conditions: assay not specified per compound

Compound | activity as agonists of the glucocorticoid receptor function in one or more of the above assays
Cc1cncc2[nH]c(CC(O)(CC(C)(C)c3ccc(F)cc3O)C(F)(F)F)cc12 (stereo not shown) [5-Fluoro-2-[4,4,4-trifluoro-3-hydroxy-1,1-dimethyl-3-(4-methyl-1H-pyrrolo[2,3-c]pyridin-2-ylmethyl)butyl]phenol] | potent agonists
CC(C)(CC(O)(Cc1cc2ncncc2[nH]1)C(F)(F)F)c1cc(F)ccc1O (stereo not shown) [4-Fluoro-2-[4,4,4-trifluoro-3-hydroxy-1,1-dimethyl-3-(5H-pyrrolo[3,2-d]pyrimidin-6-ylmethyl)butyl]phenol] | potent agonists
CC(C)(CC(O)(Cc1cc2cnccc2[nH]1)C(F)(F)F)c1cccc(-c2cccnc2)c1 (stereo not shown) [1,1,1-Trifluoro-4-methyl-4-(3-pyridin-3-ylphenyl)-2-(1H-pyrrolo[3,2-c]pyridin-2-ylmethyl)pentan-2-ol] | potent agonists
CC(C)(CC(O)(Cc1cc2cc(Cl)ncc2[nH]1)C(F)(F)F)c1cc(Cl)cc2c1OCC2 (stereo not shown) [4-(5-Chloro-2,3-dihydrobenzofuran-7-yl)-2-(5-chloro-1H-pyrrolo[2,3-c]pyridin-2-ylmethyl)-1,1,1-trifluoro-4-methylpentan-2-ol] | potent agonists
CC(C)(CC(O)(Cc1cc2cnccc2[nH]1)C1CC1)c1cc(Cl)cc2c1OCC2 (stereo not shown) [4-(5-Chloro-2,3-dihydrobenzofuran-7-yl)-2-cyclopropyl-4-methyl-1-(1H-pyrrolo[3,2-c]pyridin-2-yl)pentan-2-ol] | agonists
CC(C)(CC(O)(Cc1cc2cc(-c3ccccc3)ncc2[nH]1)C(F)(F)F)c1cccc(CN2CCOCC2)c1 (stereo not shown) [1,1,1-Trifluoro-4-methyl-4-(3-morpholin-4-ylmethylphenyl)-2-(5-phenyl-1H-pyrrolo[2,3-c]pyridin-2-ylmethyl)pentan-2-ol] | potent agonists
CC(C)(CC(O)(Cc1cc2nc(-c3ccccc3)ncc2[nH]1)C(F)(F)F)c1cccc(F)c1 (stereo not shown) [1,1,1-Trifluoro-4-(3-fluorophenyl)-4-methyl-2-(2-phenyl-5H-pyrrolo[3,2-d]pyrimidin-6-ylmethyl)pentan-2-ol] | potent agonists
COc1ccc2[nH]c(CC(O)(CC(C)(C)c3cc(Cl)cc4c3OCC4)C(F)(F)F)cc2n1 (stereo not shown) [4-(5-Chloro-2,3-dihydrobenzofuran-7-yl)-1,1,1-trifluoro-2-(5-methoxy-1H-pyrrolo[3,2-b]pyridin-2-ylmethyl)-4-methylpentan-2-ol] | potent agonists
Cc1ccc(F)cc1C(C)(C)CC(O)(Cc1cc2cc(OS(=O)(=O)C(F)(F)F)ncc2[nH]1)C(F)(F)F (stereo not shown) [Trifluoromethanesulfonic acid 2-[4-(5-fluoro-2-methylphenyl)-2-hydroxy-4-methyl-2-trifluoromethylpentyl]-1H-pyrrolo[2,3-c]pyridin-5-yl ester] | potent agonists
CC(C)C(O)(Cc1cc2cnccc2[nH]1)CC(C)(C)c1cc(Cl)cc2c1OCC2 (stereo not shown) [5-(5-Chloro-2,3-dihydrobenzofuran-7-yl)-2,5-dimethyl-3-(1H-pyrrolo[3,2-c]pyridin-2-ylmethyl)hexan-3-ol] | agonists
COc1ccc(F)cc1C(C)(C)CC(O)(Cc1cc2cc(N(C)C)ncc2[nH]1)C(F)(F)F (stereo not shown) [2-(5-Dimethylamino-1H-pyrrolo[2,3-c]pyridin-2-ylmethyl)-1,1,1-trifluoro-4-(5-fluoro-2-methoxyphenyl)-4-methylpentan-2-ol] | potent agonists
CCC(C)(C)C(O)(Cc1cc2ccncc2[nH]1)CC(C)(C)c1cc(F)ccc1OC (stereo not shown) [2-(5-Fluoro-2-methoxyphenyl)-2,5,5-trimethyl-4-(1H-pyrrolo[2,3-c]pyridin-2-ylmethyl)heptan-4-ol] | agonists
Cc1ccc(F)cc1C(C)(C)CC(O)(Cc1cc2nnccc2[nH]1)C(F)(F)F (stereo not shown) [1,1,1-Trifluoro-4-(5-fluoro-2-methylphenyl)4-methyl-2-(5H-pyrrolo[3,2-c]pyridazin-6-ylmethyl)pentan-2-ol] | potent agonists
COc1ccc(-c2cncnc2)cc1C(C)(C)CC(O)(Cn1ccc2c1CCCC2=O)C(F)(F)F (stereo not shown) [1-[2-Hydroxy-4-(2-methoxy-5-pyrimidin-5-ylphenyl)-4-methyl-2-trifluoromethylpentyl]-1,5,6,7-tetrahydroindol-4-one] | agonists
Cc1cccc2[nH]c(CC(O)(CC(C)(C)c3cc(S(C)(=O)=O)cc4c3OCC4)C(F)(F)F)cc12 (stereo not shown) [1,1,1-Trifluoro-4-(5-methanesulfonyl-2,3-dihydrobenzofuran-7-yl)-4-methyl-2-(4-methyl-1H-indol-2-ylmethyl)pentan-2-ol] | potent agonists
CC(C)(CC(O)(Cc1cc2cc(Oc3ccccc3)ncc2[nH]1)C(F)(F)F)c1cc(-c2cccnc2)ccc1O (stereo not shown) [4-Pyridin-3-yl-2-[4,4,4-trifluoro-3-hydroxy-1,1-dimethyl-3-(5-phenoxy-1H-pyrrolo[2,3-c]pyridin-2-ylmethyl)butyl]phenol] | potent agonists
CCOc1cc2cc(CC(O)(CC(C)(C)c3cc(F)ccc3C)C(F)(F)F)[nH]c2cn1 (stereo not shown) [2-(5-Ethoxy-1H-pyrrolo[2,3-c]pyridin-2-ylmethyl)-1,1,1-trifluoro-4-(5-fluoro-2-methylphenyl)-4-methylpentan-2-ol] | potent agonists
COc1ccc(-c2ccsc2)cc1C(C)(C)CC(O)(Cc1cc2ccncc2[nH]1)C(F)(F)F (stereo not shown) [1,1,1-Trifluoro-4-(2-methoxy-5-thiophen-3-ylphenyl)-4-methyl-2-(1H-pyrrolo[2,3-c]pyridin-2-ylmethyl)pentan-2-ol] | potent agonists
CC(C)Oc1cc2cc(CC(O)(CC(C)(C)c3cccc(F)c3)C(F)(F)F)[nH]c2cn1 (stereo not shown) [1,1,1-Trifluoro-4-(3-fluorophenyl)-2-(5-isopropoxy-1H-pyrrolo[2,3-c]pyridin-2-ylmethyl)-4-methylpentan-2-ol] | potent agonists
CC(C)(CC(O)(Cc1cc2ncncc2[nH]1)C(F)(F)F)c1cc(F)cc2c1OCC2 (stereo not shown) [1,1,1-Trifluoro-4-(5-fluoro-2,3-dihydrobenzofuran-7-yl)-4-methyl-2-(5H-pyrrolo[3,2-d]pyrimidin-6-ylmethyl)pentan-2-ol] | potent agonists
CC(C)C(O)(Cc1cc2cc(-c3ccccc3)ncc2[nH]1)CC(C)(C)c1cc(Cl)cc2c1OCC2 (stereo not shown) [5-(5-Chloro-2,3-dihydrobenzofuran-7-yl)-2,5-dimethyl-3-(5-phenyl-1H-pyrrolo[2,3-c]pyridin-2-ylmethyl)hexan-3-ol] | agonists
COc1cc(F)ccc1C(C)(C)CC(O)(Cc1cc2c(C)cncc2[nH]1)C(F)(F)F (stereo not shown) [1,1,1-Trifluoro-4-(4-fluoro-2-methoxyphenyl)-4-methyl-2-(4-methyl-1H-pyrrolo[2,3-c]pyridin-2-ylmethyl)pentan-2-ol] | potent agonists
